The nature of data set [1]: Pharmacokinetic analysis, brain and plasma concentration after single oral administration. In kind it is in vivo. The conditions noted are these: normal mice. As for the experimental part: (§1) Trametinib treatment: Trametinib (Medchemexpress, Monmouth Junction, N.J.) was micronized and suspended in the vehicle containing 5% mannitol, 1.5% hydroxypropyl methylcellulose and 0.2% sodium lauryl sulfate. For pharmacokinetic analysis, 0.05, 0.2 and 0.8 mg/kg of trametinib were orally administered to 7-week-old normal mice (ICR, n=5 per group) as a single administration. […] For studies on the change in pERK expression in normal mice and whole cell RNA sequencing study, 0.1 mg/kg/day of trametinib (in 4% DMSO+96% corn oil) was orally administered to 6-week old C57BL/6 mice (n=3 per group). Mice were sacrificed after 1, 2, 3, or 4 weeks of administration. 5XFAD mice (male, n=7˜10 per group) were divided into vehicle and trametinib treated groups. 12-month old mice received vehicle or 0.1 mg/kg of trametinib for 1 month by oral gavage once a day (These mice are referred to as “13-month old 5XFAD mice” in the Examples). […] Blood was obtained after completion of treatment.

In data set [2] the test system is whole brains of normal mice. Kind of data set: Bulk RNA-Seq of whole brains of normal mice. Type of data set: in vivo. Particulars: FC ≥1.3, FDR <0.05. As for the experimental part: as §1
Whole cell RNA sequencing: RNA was isolated from mice whole brain, and cDNA libraries for RNA sequencing were prepared using the TruSeq Stranded mRNA Prep Kit (Illumina, San Diego, Calif.) according to the manufacturer's guidelines (1). The libraries were sequenced on the Illumina Nextseq500 platform, and the reads were mapped to the reference Mouse mm10 genome using Tophat v2.0.13. […] To define differentially expressed genes (DEG), we set up a stringent statistic cutoff of fold change (FC) of ≥1.3 and a false discovery rate (FDR)<0.05. […] Gene ontology was performed with the Gene Ontology program of the gene ontology consortium. Heatmap analysis was performed by R studio using the DEG list related with synapse, neurogenesis and lysosome.

Data set [3] concerns 5XFAD mice. Kind of data set: Behavioral studies: Y-maze and novel object recognition tests. In kind it is in vivo. As for the experimental part: as §1
Data set [4] has as its system 5XFAD mice. Kind of data set: Immunofluorescence staining of Map2, Tau and swollen axons in cortex layer V. Type of data set: in vivo. As for the experimental part:
as §1
Brains were dissected and analyzed by immunohistochemistry. For paraffin sections, brain hemispheres were embedded sagittally in paraffin and prepared into sections of […] slices. […] The sections were counterstained with DAPI. […] NeuN-positive and active caspase 3-positive cells from cortex layer V were counted using Icy micromanager program (Institut Pasteur, Paris, France).

Data set [5] has as its system primary cortical neurons. Description: Dendritic spine formation in primary cortical neurons. In kind it is cell-based, ICR mice. As for the experimental part: Cell culture: SH-SY5Y neuroblastoma cells were cultured at 37° C., 5% CO2., in Dulbecco's Modified Eagle Medium/Ham's F-12 nutrient mixture (DMEM/F12) (Invitrogen, Carlsbad, Calif.) supplemented with 10% heat-inactivated fetal bovine serum containing 100 units/ml penicillin, 100 μg/ml streptomycin. Primary cortical neuron cultures were derived from embryo day 18 (E18) from ICR mice. The dissociated cells were plated on glass cover slips coated with poly-D-lysine in Neurobasal medium supplemented with 2% B27 (Invitrogen), 100 units/ml penicillin, 100 μg/ml streptomycin, and 2 mM L-glutamine. Primary NSCs from normal mice were isolated from the subventricular zone (SVZ) of 8 week-old C57BL/6 mice brain. NSCs from adult Tg2576 mice brain were obtained from Seoul National University Hospital. The neurospheres were cultured as previously described (M. Y. Kim, B. S. Moon, K. Y. Choi, Isolation and maintenance of cortical neural progenitor cells in vitro. Methods Mol Biol 1018, 3-10 (2013)). For neurosphere culture from normal mice, the cells were dissociated from brain tissue and grown in N2 medium in 25 cm^2 flasks (SPL, Gyeonggi-do, Korea) in suspension. bFGF (20 ng/ml, Peprotech, Princeton, N.J.) and human EGF (20 ng/ml, Peprotech) were added to the media to allow the cells to form neurospheres. For analyses, NSCs were cultured as a monolayer. For differentiation of NSCs, the neurospheres were dissociated with TrypLE (Invitrogen), plated on 15 μg/ml poly-L-ornithine-(Sigma-Aldrich, St. Louis, Mo.) and 10 μg/ml fibronectin (Gibco)-coated plates, and cultured in bFGF- and EGF-depleted N2 medium for 2 days. For neurosphere culture from Tg2576 mice, the cells were grown in DMEM/F12 supplemented with B27 supplements in 75 cm^2 flasks (SPL) in suspension. bFGF (10 ng/ml) and human EGF (10 ng/ml) were added to the media to allow the cells to form neurospheres. […]

As for `CC(=O)Nc1cccc(-n2c(=O)n(C3CC3)c(=O)c3c(Nc4ccc(I)cc4F)n(C)c(=O)c(C)c32)c1` [trametinib], the Kp in data set [1] (ICR, mouse, brain and plasma, 0.8 mg/kg, highest dose group, read-out: brain/plasma exposure ratio (AUC)) turned out to be 0.477. Moreover, the “penetration of the blood-brain barrier (BBB)” value in data set [1] is recorded as “confirmed to penetrate the blood-brain barrier (BBB)”. Besides, the “number of differentially expressed genes (DEGs) between vehicle and trametinib group” value is given as 500 in data set [2] (first week), 538 in data set [2] (fourth week), 498 in data set [2] (second week) and 446 in data set [2] (third week). Besides, the “memory formation in Y-maze and novel object recognition tests” value in data set [3] is recorded as “recovery of memory formation”. Also, the bulb-like swollen axons entry in data set [4] (5XFAD mice, compared to vehicle-administered group) is reported as “significantly reduced”. In addition, the “dendritic and axonal lengths (Map2, Tau)” value in data set [4] (cortex of 8-month-old and 13-month-old 5XFAD mice) was “recovery of dendritic and axonal lengths”. In data set [5] (100 nM), the “increase in number of dendritic spines compared to vehicle treated group” value amounted to 24%. Further, the “increase in number of dendritic spines compared to Aβ1-42 treated alone group” value in data set [5] (Aβ1-42 oligomer-induced neurotoxic conditions) is recorded as 80%.
